Reference: ChEMBL document CHEMBL1201862, “PubChem BioAssay data set” (2004)
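Results reflect a 48-hour exposure of cells in 96-well plates to compound at five concentrations. Here, GI50 denotes the concentration required for 50% inhibition of growth.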 Activity calls are given as the source filed them. Rule as the data show it: active = GI50 up to about 1.1 µM and inactive = higher.

Experiments:
Experiment in all cases: DTP human tumour cell line panel, 48 h
OVCAR-3 = test system: OVCAR-3
EKVX = test system: EKVX
786-0 = test system: 786-0
MOLT-4 = test system: MOLT-4
SK-MEL-5 = test system: SK-MEL-5
DU-145 = test system: DU-145
CAKI-1 = test system: CAKI-1
A549 = test system: A549
ACHN = test system: ACHN
HCT-116 = test system: HCT-116
NCI-H226 = test system: NCI-H226
M19-MEL = test system: M19-MEL
KM12 = test system: KM12
UACC-257 = test system: UACC-257
SW-620 = test system: SW-620
NCI-H23 = test system: NCI-H23
K562 = test system: K562
SF-539 = test system: SF-539
HCT-15 = test system: HCT-15
DLD-1 = test system: DLD-1
BT-549 = test system: BT-549
OVCAR-4 = test system: OVCAR-4
RPMI-8226 = test system: RPMI-8226
HOP-18 = test system: HOP-18
PC-3 = test system: PC-3
DMS-273 = test system: DMS-273
Hs-578T = test system: Hs-578T
SF-268 = test system: SF-268
SF-295 = test system: SF-295
HOP-62 = test system: HOP-62
RXF 393 = test system: RXF 393
HOP-92 = test system: HOP-92
CCRF-CEM = test system: CCRF-CEM
HT-29 = test system: HT-29
Malme-3M = test system: Malme-3M
TK-10 = test system: TK-10
MCF7 = test system: MCF7
T47D = test system: T47D
HCC 2998 = test system: HCC 2998
MDA-N = test system: MDA-N
COLO 205 = test system: COLO 205
NCI-H460 = test system: NCI-H460
KM-20L2 = test system: KM-20L2
M14 = test system: M14
SN12C = test system: SN12C
IGROV-1 = test system: IGROV-1
SNB-19 = test system: SNB-19
XF498 = test system: XF498
UO-31 = test system: UO-31
SNB-75 = test system: SNB-75
LOX IMVI = test system: LOX IMVI
NCI/ADR-RES = test system: NCI/ADR-RES
SR = test system: SR
A498 = test system: A498
UACC-62 = test system: UACC-62
SK-MEL-28 = test system: SK-MEL-28
SK-OV-3 = test system: SK-OV-3
LXFL 529 = test system: LXFL 529
HL-60 = test system: HL-60
MDA-MB-435 = test system: MDA-MB-435
OVCAR-5 = test system: OVCAR-5
NCI-H522 = test system: NCI-H522
SK-MEL-2 = test system: SK-MEL-2
U-251 = test system: U-251
OVCAR-8 = test system: OVCAR-8
DMS-114 = test system: DMS-114

N#C/C(=C\c1c[nH]c2ccccc12)C(=O)c1ccc(O)c(O)c1 was tested, and the GI50 (OVCAR-3) was 3.33 µM (inactive), the GI50 (EKVX) was 34.8 µM (inactive) and the GI50 (786-0) was 22.8 µM (inactive). For the same compound, the GI50 (MOLT-4) was 12.4 µM (inactive), the GI50 (SK-MEL-5) was 35.5 µM (inactive) and the GI50 (DU-145) was 27.4 µM (inactive). The GI50 (CAKI-1) was 41.5 µM (inactive), the GI50 (A549) was 26.1 µM (inactive) and the GI50 (ACHN) was 27.8 µM (inactive). For the same compound, the GI50 (HCT-116) was 31.4 µM (inactive), the GI50 (NCI-H226) was 47.4 µM (inactive) and the GI50 (M19-MEL) was 83.2 µM (inactive). The GI50 (KM12) was 27.7 µM (inactive), the GI50 (UACC-257) was 50.7 µM (inactive) and the GI50 (SW-620) was 32.7 µM (inactive). For the same compound, the GI50 (NCI-H23) was 45.8 µM (inactive), the GI50 (K562) was 23.2 µM (inactive) and the GI50 (SF-539) was 25.6 µM (inactive). For the same compound, the GI50 (HCT-15) was 22.9 µM, the GI50 (DLD-1) was 47.9 µM (inactive) and the GI50 (BT-549) was 11.1 µM (inactive). For the same compound, the GI50 (OVCAR-4) was 27.2 µM (inactive), the GI50 (RPMI-8226) was 15.4 µM (inactive) and the GI50 (HOP-18) was 38.5 µM (inactive). The GI50 (PC-3) was 33.8 µM (inactive), the GI50 (DMS-273) was 36.2 µM (inactive) and the GI50 (Hs-578T) was 47.2 µM (inactive). The GI50 (SF-268) was 39.7 µM (inactive), the GI50 (SF-295) was 14.6 µM (inactive) and the GI50 (HOP-62) was 19.2 µM (inactive). For the same compound, the GI50 (RXF 393) was 38.9 µM (inactive), the GI50 (HOP-92) was 32.1 µM (inactive) and the GI50 (CCRF-CEM) was 5.87 µM (inactive). For the same compound, the GI50 (HT-29) was 28 µM (inactive), the GI50 (Malme-3M) was > 47.9 µM (inactive) and the GI50 (TK-10) was 51.2 µM (inactive). The GI50 (MCF7) was 12 µM (inactive), the GI50 (T47D) was 31 µM (inactive) and the GI50 (HCC 2998) was 32.5 µM (inactive). For the same compound, the GI50 (MDA-N) was 47.1 µM (inactive), the GI50 (COLO 205) was 32.7 µM (inactive) and the GI50 (NCI-H460) was 24.5 µM (inactive). For the same compound, the GI50 (KM-20L2) was 55.5 µM (inactive), the GI50 (M14) was 38.5 µM (inactive) and the GI50 (SN12C) was 23.1 µM (inactive). The GI50 (IGROV-1) was 24.6 µM (inactive), the GI50 (SNB-19) was 32.4 µM (inactive) and the GI50 (XF498) was 48.8 µM (inactive). For the same compound, the GI50 (UO-31) was 6.85 µM (inactive), the GI50 (SNB-75) was 41 µM (inactive) and the GI50 (LOX IMVI) was 23.7 µM (inactive). The GI50 (NCI/ADR-RES) was 20.5 µM (inactive), the GI50 (SR) was 9.82 µM (inactive) and the GI50 (A498) was 41.6 µM (inactive). For the same compound, the GI50 (UACC-62) was 28.8 µM (inactive), the GI50 (SK-MEL-28) was 47.3 µM (inactive) and the GI50 (SK-OV-3) was 43.5 µM (inactive). The GI50 (LXFL 529) was 39.4 µM (inactive), the GI50 (HL-60) was 13.2 µM (inactive) and the GI50 (MDA-MB-435) was 20.8 µM (inactive). The GI50 (OVCAR-5) was 33 µM (inactive), the GI50 (NCI-H522) was 13.5 µM (inactive) and the GI50 (SK-MEL-2) was > 36.7 µM (inactive). For the same compound, the GI50 (U-251) was 20.4 µM (inactive) and the GI50 (OVCAR-8) was 38.5 µM (inactive).

With O=NN(CCCl)C(=O)N[C@H]1CCCC[C@@H]1Cl the GI50 (OVCAR-3) was > 100 µM (inactive), the GI50 (EKVX) was > 100 µM (inactive) and the GI50 (786-0) was 37.8 µM (inactive). For the same compound, the GI50 (MOLT-4) was 32.4 µM (inactive), the GI50 (SK-MEL-5) was > 100 µM (inactive) and the GI50 (CAKI-1) was > 100 µM (inactive). For the same compound, the GI50 (A549) was 61.5 µM (inactive), the GI50 (ACHN) was 57.7 µM (inactive) and the GI50 (HCT-116) was 50.6 µM (inactive). For the same compound, the GI50 (NCI-H226) was > 100 µM (inactive), the GI50 (M19-MEL) was 39.7 µM (inactive) and the GI50 (KM12) was > 100 µM (inactive). For the same compound, the GI50 (SW-620) was > 100 µM (inactive), the GI50 (NCI-H23) was 71.6 µM (inactive) and the GI50 (K562) was 55.8 µM (inactive). The GI50 (SF-539) was 24.9 µM (inactive), the GI50 (HCT-15) was > 100 µM and the GI50 (DLD-1) was > 100 µM (inactive). The GI50 (OVCAR-4) was > 100 µM (inactive), the GI50 (RPMI-8226) was 43.8 µM (inactive) and the GI50 (HOP-18) was > 100 µM (inactive). The GI50 (DMS-273) was 62.7 µM (inactive), the GI50 (SF-268) was 16.7 µM (inactive) and the GI50 (SF-295) was 47.1 µM (inactive). For the same compound, the GI50 (RXF 393) was > 100 µM (inactive), the GI50 (HOP-92) was > 100 µM (inactive) and the GI50 (CCRF-CEM) was 19.6 µM (inactive). The GI50 (HT-29) was 79.6 µM (inactive), the GI50 (Malme-3M) was > 100 µM (inactive) and the GI50 (DMS-114) was 34.2 µM (inactive). For the same compound, the GI50 (TK-10) was > 100 µM (inactive), the GI50 (HCC 2998) was > 100 µM (inactive) and the GI50 (COLO 205) was > 100 µM (inactive). For the same compound, the GI50 (NCI-H460) was 29.4 µM (inactive), the GI50 (KM-20L2) was > 100 µM (inactive) and the GI50 (M14) was > 100 µM (inactive). The GI50 (SN12C) was 88.1 µM (inactive), the GI50 (IGROV-1) was > 100 µM (inactive) and the GI50 (SNB-19) was > 100 µM (inactive). The GI50 (XF498) was > 100 µM (inactive), the GI50 (UO-31) was > 100 µM (inactive) and the GI50 (SNB-75) was 47 µM (inactive). For the same compound, the GI50 (SR) was 3.48 µM (inactive), the GI50 (A498) was > 100 µM (inactive) and the GI50 (SK-MEL-28) was > 100 µM (inactive). For the same compound, the GI50 (SK-OV-3) was > 100 µM (inactive), the GI50 (LXFL 529) was > 100 µM (inactive) and the GI50 (HL-60) was 19.6 µM (inactive). The GI50 (NCI-H522) was > 100 µM (inactive), the GI50 (SK-MEL-2) was > 100 µM (inactive) and the GI50 (U-251) was 30.4 µM (inactive). The GI50 (OVCAR-8) was > 100 µM (inactive).
